Experimental data published in US10501438B2, “Aryl-substituted dihydroquinolinones, their preparation and their use as pharmaceuticals” (NEOMED Institute, priority 2015, dated 2019).
pIC50: −log10 of the molar value.

Each compound was assayed on human C-Myc transcription in MV-4-11 cells (assay: Transcription of human C-Myc in human leukemic MV-4-11 cells (QuantiGene 2.0)). Conditions: Homo sapiens, MV4-11, 4 h, inhibition of C-Myc mRNA, 4 hours treatment.
Type: cell-based
Protocol: b) Transcription of Human C-Myc in Human Leukemic MV-4-11 Cells:
The effect of compounds on transcription of human C-Myc gene is monitored in human B-myelomonocytic leukemia cell line MV-4-11 (from American Type Culture Collection (ATCC), Manassas, Va., USA) using QuantiGene 2.0 assay kit (Affymetrix, Santa Clara, Calif., USA).
Typically, 8,000 MV-4-11 cells are plated in sterile 96-well plates (Costar #3598 from Fisher Scientific Canada, Ottawa, Ontario, Canada) in Iscove's medium supplemented with 10% fetal bovine serum, glutamine (2 mM), and penicillin (100 I.U.) and streptomycin (100 μg/mL) (all from Wisent Inc., St. Bruno, Quebec, Canada). Compounds are dissolved in DMSO at 30 mM. A series of 1:3 dilutions are first made in DMSO, and further 1:100 dilutions are made in serum-containing cell culture media. The final concentration of DMSO is 0.1% in cell culture media. After cells are treated with various concentrations of test compound for 4 hours, cells are lysed using Quantigene 2.0 sample processing kit (#QS0100). C-Myc mRNA is detected using a QuantiGene 2.0 assay kit (#QS0009) with gene-specific probe to human C-Myc (#SA-50182) following the manufacturer's recommendations. Luminescene signals are read on Flexstation II microplate reader (Molecular Devices, Sunnyvale, Calif., USA).

pIC50	Compound
6.26	Cc1cc(-c2cc3c(c(OCC4CCCOC4)c2)NC(=O)CC3)cn(C)c1=O (stereo not shown) [Compound 54a, 6-(1,5-dimethyl-6-oxo-1,6-dihydropyridin-3-yl)-8-((tetrahydro-2H-pyran-3-yl)methoxy)-3,4-dihydroquinolin-2(1H)-one]
6.05	Cc1cc(-c2cc3c(cc2Cc2ccccn2)NC(=O)CC3)cn(C)c1=O [Compound 61, 6-(1,5-dimethyl-6-oxo-1,6-dihydropyridin-3-yl)-7-(pyridin-2-ylmethyl)-3,4-dihydroquinolin-2(1H)-one]
6.25	Cc1cccnc1COc1cc(-c2cc(C)c(=O)n(C)c2)cc2c1NC(=O)CC2 [Compound 76, 6-(1,5-dimethyl-6-oxo-1,6-dihydropyridin-3-yl)-8-((3-methylpyridin-2-yl)methoxy)-3,4-dihydroquinolin-2(1H)-one]
6.28	Cc1cc(-c2cc3c(c(OCc4ncco4)c2)NC(=O)CC3)cn(C)c1=O [Compound 81, 6-(1,5-dimethyl-6-oxo-1,6-dihydropyridin-3-yl)-8-(oxazol-2-ylmethoxy)-3,4-dihydroquinolin-2(1H)-one]
6.62	Cc1cc(-c2cc3c(c(NC(C)c4ccccn4)c2)NC(=O)CC3)cn(C)c1=O (stereo not shown) [Compound 22, 6-(1,5-dimethyl-6-oxo-3-pyridyl)-8-[1-(2-pyridyl)ethylamino]-3,4-dihydro-1H-quinolin-2-one]
6.07	Cc1cc(-c2cc3c(cc2Cc2cccnc2)NC(=O)CC3)cn(C)c1=O [Compound 62, 6-(1,5-dimethyl-6-oxo-1,6-dihydropyridin-3-yl)-7-(pyridin-3-ylmethyl)-3,4-dihydroquinolin-2(1H)-one]
6.46	Cc1cc(-c2cc3c(cc2Cc2cccc(F)c2)NC(=O)CC3)cn(C)c1=O [Compound 85, 6-(1,5-dimethyl-6-oxo-1,6-dihydropyridin-3-yl)-7-(3-fluorobenzyl)-3,4-dihydroquinolin-2(1H)-one]
6.11	Cc1cc(-c2ccc3c(c2CCc2ccccc2)CCC(=O)N3)cn(C)c1=O [Compound 96, 6-(1,5-dimethyl-6-oxo-1,6-dihydropyridin-3-yl)-5-phenethyl-3,4-dihydroquinolin-2(1H)-one]
6.04	Cc1cc(-c2cc3c(c(COCC(F)(F)F)c2)NC(=O)CC3)cn(C)c1=O [Compound 46, 6-(1,5-dimethyl-6-oxo-1,6-dihydropyridin-3-yl)-8-((2,2,2-trifluoroethoxy)methyl)-3,4-dihydroquinolin-2(1H)-one]
6.57	Cc1cc(-c2cc3c(c(COc4ccccc4)c2)NC(=O)CC3)cn(C)c1=O [Compound 44, 6-(1,5-dimethyl-6-oxo-1,6-dihydropyridin-3-yl)-8-(phenoxymethyl)-3,4-dihydroquinolin-2(1H)-one]
6.14	Cc1cc(-c2ccc3c(c2/C=C/c2ccccc2)CCC(=O)N3)cn(C)c1=O [Compound 94, (E)-6-(1,5-dimethyl-6-oxo-1,6-dihydropyridin-3-yl)-5-styryl-3,4-dihydroquinolin-2(1H)-one]
6.59	Cc1cc(-c2ccc3c(c2Cc2cccc(C#N)c2)CCC(=O)N3)cn(C)c1=O [Compound 88, 3-((6-(1,5-dimethyl-6-oxo-1,6-dihydropyridin-3-yl)-2-oxo-1,2,3,4-tetrahydroquinolin-5-yl)methyl)benzonitrile]
5.55	Cc1cc(-c2cc3c(cc2COC2CCCC2)CCC(=O)N3)cn(C)c1=O [Compound 34, 6-((cyclopentyloxy)methyl)-7-(1,5-dimethyl-6-oxo-1,6-dihydropyridin-3-yl)-3,4-dihydroquinolin-2(1H)-one]
6.38	Cc1cc(-c2cc3c(c(NCc4ccncc4)c2)NC(=O)CC3)cn(C)c1=O [Compound 28, 6-(1,5-dimethyl-6-oxo-3-pyridyl)-8-(4-pyridylmethylamino)-3,4-dihydro-1H-quinolin-2-one]

Further lines, the compound ahead of its results:

Compound	pIC50
Cc1cc(-c2cc3c(cc2Cc2ccc(F)cc2)NC(=O)CC3)cn(C)c1=O [Compound 90, 6-(1,5-dimethyl-6-oxo-1,6-dihydropyridin-3-yl)-7-(4-fluorobenzyl)-3,4-dihydroquinolin-2(1H)-one]	6.62
Cc1cc(-c2cc3c(c(COC4CCCC4)c2)NC(=O)CC3)cn(C)c1=O [Compound 21, 8-(cyclopentoxymethyl)-6-(1,5-dimethyl-6-oxo-3-pyridyl)-3,4-dihydro-1H-quinolin-2-one]	6.55
Cc1cc(-c2ccc3c(c2Cc2ccccn2)CCC(=O)N3)cn(C)c1=O [Compound 57, 6-(1,5-dimethyl-6-oxo-1,6-dihydropyridin-3-yl)-5-(pyridin-2-ylmethyl)-3,4-dihydroquinolin-2(1H)-one]	6.62
Cc1cc(-c2cc3c(c(OC4CCCCC4)c2)NC(=O)CC3)cn(C)c1=O [Compound 16, 8-(cyclohexyloxy)-6-(1,5-dimethyl-6-oxo-1,6-dihydropyridin-3-yl)-3,4-dihydroquinolin-2(1H)-one]	6.28
Cc1cc(-c2cc3c(cc2COC2CCCC2)NC(=O)CC3)cn(C)c1=O [Compound 70, 7-((cyclopentyloxy)methyl)-6-(1,5-dimethyl-6-oxo-1,6-dihydropyridin-3-yl)-3,4-dihydroquinolin-2(1H)-one]	5.11
Cc1cc(-c2cc3c(c(OCC4CCCCC4)c2)NC(=O)CC3)cn(C)c1=O [Compound 71]	6.27
Cc1cc(-c2cc3c(c(COC4CCCOC4)c2)NC(=O)CC3)cn(C)c1=O (stereo not shown) [Compound 48a, 6-(1,5-dimethyl-6-oxo-1,6-dihydropyridin-3-yl)-8-(((tetrahydro-2H-pyran-3-yl)oxy)methyl)-3,4-dihydroquinolin-2(1H)-one]	5.67
Cc1cc(-c2cc3c(c(OCc4ccncc4)c2)NC(=O)CC3)cn(C)c1=O [Compound 73, 6-(1,5-dimethyl-6-oxo-1,6-dihydropyridin-3-yl)-8-(pyridin-4-ylmethoxy)-3,4-dihydroquinolin-2(1H)-one]	6.30
Cc1cc(-c2cc(Cc3ccccc3)c3c(c2)NC(=O)CC3)cn(C)c1=O [Compound 99, 5-benzyl-7-(1,5-dimethyl-6-oxo-1,6-dihydropyridin-3-yl)-3,4-dihydroquinolin-2(1H)-one]	6.08
Cc1cc(-c2ccc3c(c2Cc2ccc(C#N)cc2)CCC(=O)N3)cn(C)c1=O [Compound 87, 4-((6-(1,5-dimethyl-6-oxo-1,6-dihydropyridin-3-yl)-2-oxo-1,2,3,4-tetrahydroquinolin-5-yl)methyl)benzonitrile]	7.00
Cc1cc(-c2cc3c(c(OCc4cncnc4)c2)NC(=O)CC3)cn(C)c1=O [Compound 53, 6-(1,5-dimethyl-6-oxo-1,6-dihydropyridin-3-yl)-8-(pyrimidin-5-ylmethoxy)-3,4-dihydroquinolin-2(1H)-one]	5.68
Cc1cc(-c2ccc3c(c2Cc2cccnc2)CCC(=O)N3)cn(C)c1=O [Compound 58, 6-(1,5-dimethyl-6-oxo-1,6-dihydropyridin-3-yl)-5-(pyridin-3-ylmethyl)-3,4-dihydroquinolin-2(1H)-one]	6.60
Cc1cc(-c2cc3c(c(OCc4ccc(F)cn4)c2)NC(=O)CC3)cn(C)c1=O [Compound 77, 6-(1,5-dimethyl-6-oxo-1,6-dihydropyridin-3-yl)-8-((5-fluoropyridin-2-yl)methoxy)-3,4-dihydroquinolin-2(1H)-one]	5.64
Cc1cc(-c2cc3c(c(COC4CCCCC4)c2)NC(=O)CC3)cn(C)c1=O [Compound 27, 8-(cyclohexoxymethyl)-6-(1,5-dimethyl-6-oxo-3-pyridyl)-3,4-dihydro-1H-quinolin-2-one]	6.82
Cc1cc(-c2ccc3c(c2Cc2ccccc2C#N)CCC(=O)N3)cn(C)c1=O [Compound 89, 2-((6-(1,5-dimethyl-6-oxo-1,6-dihydropyridin-3-yl)-2-oxo-1,2,3,4-tetrahydroquinolin-5-yl)methyl)benzonitrile]	6.25
Cc1cc(-c2cc3c(cc2COC2CCC2)NC(=O)CC3)cn(C)c1=O [Compound 69, 7-(cyclobutoxymethyl)-6-(1,5-dimethyl-6-oxo-1,6-dihydropyridin-3-yl)-3,4-dihydroquinolin-2(1H)-one]	5.90
Cc1cc(-c2cc3c(cc2/C=C/c2ccccc2)NC(=O)CC3)cn(C)c1=O [Compound 93, (E)-6-(1,5-dimethyl-6-oxo-1,6-dihydropyridin-3-yl)-7-styryl-3,4-dihydroquinolin-2(1H)-one]	6.12
Cc1cc(-c2cc3c(c(OCC4CCCCO4)c2)NC(=O)CC3)cn(C)c1=O (stereo not shown) [Compound 55a, 6-(1,5-dimethyl-6-oxo-1,6-dihydropyridin-3-yl)-8-((tetrahydro-2H-pyran-2-yl)methoxy)-3,4-dihydroquinolin-2(1H)-one]	6.24

Same assay, conditions: inhibition of C-Myc mRNA, 4 hours treatment

pIC50	Compound
6.29	Cc1cc(-c2cc3c(c(OC(C)c4cccnc4)c2)NC(=O)CC3)cn(C)c1=O (single isomer, unassigned) [Compound 92b, 6-(1,5-dimethyl-6-oxo-1,6-dihydropyridin-3-yl)-8-(1-(pyridin-3-yl)ethoxy)-3,4-dihydroquinolin-2(1H)-one]
6.62	Cc1cc(-c2cc3c(c(NC(C)c4ccccn4)c2)NC(=O)CC3)cn(C)c1=O (stereo not shown) [Compound 23, 6-(1,5-dimethyl-6-oxo-3-pyridyl)-8-[1-(2-pyridyl)ethylamino]-3,4-dihydro-1H-quinolin-2-one]
